In publication PMC6112376, “Comprehensive Analyses and Prioritization of Tox21 10K Chemicals Affecting Mitochondrial Function by in-Depth Mechanistic Studies” (Environmental Health Perspectives, 2018):
Read-outs that look alike come from different tables or passages of the source.

Tests used:
rat primary hepatocytes [1] = tested on: rat primary hepatocytes
[2] = tested on: isolated rat liver mitochondria; experiment: Oxygen consumption, Clark-type oxygen electrode; assay type: biochemical
HepG2 cells [3] = conditions: cited from earlier work
[4] = tested on: mitochondrial respiratory chain complex V; assay type: biochemical, rat
hNSC = experiment: MMP assay in human neural stem cells (hNSC); assay type: cell-based; conditions: Homo sapiens, Neural stem cell, 1 h, read-out: hNSC IC50 (MMP)
[5] = target: T1, mitochondrial respiratory chain complex II (Rattus norvegicus, UniProt P21913+Q641Z9+Q6PCT8+Q920L2); experiment: Respiratory chain complex II activity; assay type: biochemical; conditions: tested up to 100μM
T1 construct: Submitochondrial particles were prepared by subjecting the intact rat mitochondria, isolated as described above, to three successive freeze–thaw cycles; from tissue; host or cells: rat liver mitochondria (submitochondrial particles)
T1 sequence (Q920L2 35-656): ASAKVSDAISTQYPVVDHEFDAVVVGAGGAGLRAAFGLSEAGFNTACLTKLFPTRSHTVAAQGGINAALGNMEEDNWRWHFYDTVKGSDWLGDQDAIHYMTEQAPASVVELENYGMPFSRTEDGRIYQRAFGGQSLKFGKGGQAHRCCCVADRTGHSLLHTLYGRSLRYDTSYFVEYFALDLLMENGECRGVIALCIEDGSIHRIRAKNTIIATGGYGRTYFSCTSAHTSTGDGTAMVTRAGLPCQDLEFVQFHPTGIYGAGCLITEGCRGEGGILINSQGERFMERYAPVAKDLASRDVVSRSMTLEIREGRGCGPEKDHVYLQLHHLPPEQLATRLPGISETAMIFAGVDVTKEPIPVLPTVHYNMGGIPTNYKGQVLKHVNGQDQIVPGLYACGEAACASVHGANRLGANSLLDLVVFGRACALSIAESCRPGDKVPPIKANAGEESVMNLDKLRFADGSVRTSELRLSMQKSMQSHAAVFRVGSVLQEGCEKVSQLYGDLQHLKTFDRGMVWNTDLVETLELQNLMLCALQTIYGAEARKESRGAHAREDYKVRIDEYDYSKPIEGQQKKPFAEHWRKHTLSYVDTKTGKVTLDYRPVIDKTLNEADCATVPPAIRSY
T1 sequence (P21913 31-282): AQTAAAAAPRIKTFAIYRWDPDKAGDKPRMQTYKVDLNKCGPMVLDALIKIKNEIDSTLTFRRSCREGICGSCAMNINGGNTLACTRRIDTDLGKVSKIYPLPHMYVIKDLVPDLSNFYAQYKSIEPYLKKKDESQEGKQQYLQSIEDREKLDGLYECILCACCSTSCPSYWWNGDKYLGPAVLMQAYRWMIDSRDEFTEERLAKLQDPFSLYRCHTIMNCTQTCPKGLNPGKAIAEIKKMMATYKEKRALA
T1 sequence (Q641Z9 1-169): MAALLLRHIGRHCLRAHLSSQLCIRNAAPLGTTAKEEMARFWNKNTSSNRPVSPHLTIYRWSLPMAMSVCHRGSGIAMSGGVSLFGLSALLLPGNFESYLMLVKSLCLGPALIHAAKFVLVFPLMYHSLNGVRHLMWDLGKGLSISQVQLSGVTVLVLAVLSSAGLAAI
T1 sequence (Q6PCT8 57-159): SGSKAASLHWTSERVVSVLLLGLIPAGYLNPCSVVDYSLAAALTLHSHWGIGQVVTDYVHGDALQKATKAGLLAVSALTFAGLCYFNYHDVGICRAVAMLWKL

[6] = tested on: Caenorhabditis elegans (Bristol N2); experiment: C. elegans larval development and growth assay
[7] = tested on: mitochondrial respiratory chain complex I; assay type: biochemical, rat; conditions: at 100μM
HepG2 cells [8] = experiment: Intracellular ATP content (cell viability) assay; assay type: cell-based, human; conditions: Homo sapiens, HepG2, 40 h
rat primary hepatocytes [9] = experiment: MMP assay in rat primary hepatocytes; conditions: Rattus norvegicus, Hepatocyte
[10] = tested on: mitochondrial respiratory chain complex IV; assay type: biochemical, rat
[11] = tested on: Caenorhabditis elegans strain PE255; experiment: In vivo C. elegans ATP status assay
[12] = tested on: Caenorhabditis elegans (Bristol N2); conditions: Bristol N2 (wild type), Caenorhabditis elegans, in vivo
[13] = tested on: HeLa cells expressing YFP-Parkin; experiment: Parkin translocation assay; assay type: cell-based, human
[14] = tested on: Nrf2/ARE (ARE-bla HepG2 cells); experiment: ARE β-lactamase reporter gene assay; assay type: cell-based, human; conditions: 16 h incubation; mean±SD of three experiments
HepG2 cells [15] = experiment: cells; conditions: Homo sapiens
[16] = tested on: mitochondrial respiratory chain complex III; assay type: biochemical, rat
[17] = tested on: p53 (p53-bla HCT-116 cells); experiment: p53 β-lactamase reporter gene assay; assay type: cell-based, human; conditions: 16 h incubation; mean±SD of three experiments
HepG2 cells [18] = experiment: ROS-Glo hydrogen peroxide (ROS) assay; assay type: cell-based, human

## CC[C@@H](C(=O)[C@@H](C)[C@@H](O)[C@H](C)CCc1ccc(C)c(O)c1C(=O)O)[C@H]1O[C@](CC)([C@H]2CC[C@](O)(CC)[C@H](C)O2)C[C@@H]1C [Lasalocid sodium, reference compound]
Rat primary hepatocytes [1]
  MMP assays efficacy (%) Rat Hepatocytes: -105±1%
  Rat hepatocytes (efficacy) (MMP): 1.27±0.23 ( −95.6±2.35 ) %
[2]
  Potential Mechanism: Uncoupler + Inhibitor
[2]; 0.032 µM
  I-ADP, % of control (O2 consumption rate): 102 (33.0) % of control
  I-sub, % of control (O2 consumption rate): 114 (12.4) % of control
  II-ADP, % of control (O2 consumption rate): 87 (52.0) % of control
  II-sub, % of control (O2 consumption rate): 98 (20.1) % of control
[2]; 0.16 µM
  I-ADP, % of control (O2 consumption rate): 105 (34.0) % of control
  I-sub, % of control (O2 consumption rate): 118 (12.9) % of control
  II-ADP, % of control (O2 consumption rate): 72 (43.1) % of control
  II-sub, % of control (O2 consumption rate): 107 (22.1) % of control
[2]; 0.8 µM
  I-ADP, % of control (O2 consumption rate): 90 (29.2) % of control
  I-sub, % of control (O2 consumption rate): 120 (13.1) % of control
  II-ADP, % of control (O2 consumption rate): 57 (34.1) % of control
  II-sub, % of control (O2 consumption rate): 115 (23.6) % of control
[2]; 4 µM
  I-ADP, % of control (O2 consumption rate): 81 (26.3) % of control
  I-sub, % of control (O2 consumption rate): 164 (17.9) % of control
  II-ADP, % of control (O2 consumption rate): 60 (35.9) % of control
  II-sub, % of control (O2 consumption rate): 151 (31.2) % of control
[2]; 20 µM
  I-ADP, % of control (O2 consumption rate): 107 (34.7) % of control
  I-sub, % of control (O2 consumption rate): 347 (37.8) % of control
  II-ADP, % of control (O2 consumption rate): 48 (28.6) % of control
  II-sub, % of control (O2 consumption rate): 160 (33.0) % of control
[2]; 100 µM
  I-ADP, % of control (O2 consumption rate): 16 (8.1) % of control
  I-sub, % of control (O2 consumption rate): 32 (6.9) % of control
  II-ADP, % of control (O2 consumption rate): 20 (11.6) % of control
  II-sub, % of control (O2 consumption rate): 39 (13.7) % of control
HepG2 cells [3]
  MMP assays efficacy (%) qHTS-HepG2: -107±4%
HepG2 cells [3]; read-out: MMP assays IC50 (µM), qHTS-HepG2
  IC50: 1.14 ± 0.07 µM
[4]
  Complex V % inhibition (activity call): Inactive
hNSC
  IC50: 0.54 µM
[5]
  Complex II % inhibition (activity call): Inactive
[6]; 0.5 µM
  EXT: mean difference in nematode size relative to plate controls: 0.01876
[6]; 1 µM
  EXT: mean difference in nematode size relative to plate controls: -0.05443
[6]; 5 µM
  EXT: mean difference in nematode size relative to plate controls: 0.2782
[6]; 10 µM
  EXT: mean difference in nematode size relative to plate controls: 0.2152
[6]; 25 µM
  EXT: mean difference in nematode size relative to plate controls: 0.9725
[6]; 50 µM
  EXT: mean difference in nematode size relative to plate controls: 1.753
[6]; 75 µM
  EXT: mean difference in nematode size relative to plate controls: 1.778
[6]; 100 µM
  EXT: mean difference in nematode size relative to plate controls: 1.712
[6]; 0.5–100μM
  effect on larval growth (in words): inhibited
[6]; Caenorhabditis elegans, read-out: LEC EXT: lowest effect concentration for extinction, a measure of nematode size
  minimal effective concentration: 5 µM
[7]
  Complex I % inhibition: 18.3±6.97 at 100μM %
HepG2 cells [8]; read-out: ATP (HepG2, galactose) IC50
  IC50: 35.4 µM
HepG2 cells [8]; read-out: ATP (HepG2, glucose) IC50
  IC50: 30.7 µM
Rat primary hepatocytes [9]; 1 h, read-out: Rat hepatocytes IC50 (MMP)
  IC50: 1.27 µM
Rat primary hepatocytes [9]; read-out: MMP assays IC50 (µM) Rat Hepatocytes
  IC50: 1.3 ± 0.29 µM
[10]
  Complex IV % inhibition (activity call): Inactive
[11]; 0.5 µM
  LUM: mean difference in luminescence (ATP content) relative to plate controls: -0.09691
[11]; 1 µM
  LUM: mean difference in luminescence (ATP content) relative to plate controls: 0.04489
[11]; 5 µM
  LUM: mean difference in luminescence (ATP content) relative to plate controls: 0.262
[11]; 10 µM
  LUM: mean difference in luminescence (ATP content) relative to plate controls: 0.184
[11]; 25 µM
  LUM: mean difference in luminescence (ATP content) relative to plate controls: 0.7982
[11]; 50 µM
  LUM: mean difference in luminescence (ATP content) relative to plate controls: 0.8669
[11]; 75 µM
  LUM: mean difference in luminescence (ATP content) relative to plate controls: 1.247
[11]; 100 µM
  LUM: mean difference in luminescence (ATP content) relative to plate controls: 1.4191
[11]; 0.5–100μM
  effect on ATP content (in words): inhibited
[11]; Caenorhabditis elegans, read-out: LEC LUM: lowest effect concentration for luminescence, a measure of nematode ATP content
  minimal effective concentration: 25 µM
[12]
  LEC (lowest effect concentration), larval growth assay: ≤ 10 µM
[13]
  Parkin recruitment: Inactive
[14]
  ARE (HepG2) EC50: Inactive
HepG2 cells [15]; HepG2, 1 h, read-out: HepG2 IC50 Galactose (MMP)
  IC50: 1.58 µM
HepG2 cells [15]; HepG2, 1 h, read-out: HepG2 IC50 Glucose (MMP)
  IC50: 1.54 µM
HepG2 cells [15]; HepG2, read-out: MMP assays IC50 (µM) HepG2
  IC50: 1.38 µM
HepG2 cells [15]; HepG2, read-out: MMP assays efficacy (%) HepG2
  Emax: 99%
[16]
  Complex III % inhibition (activity call): Inactive
[17]
  p53 (HCT-116) EC50: Inactive
HepG2 cells [18]
  ROS (HepG2) EC50: Inactive
